The values that follow come from patent US20070099822A1, “Regulation of tissue mineralization and phosphate metabolism by asarm peptides” (priority 2003, published 2007).

The target in this assay is anti-ASARM-peptide polyclonal. In words: Competitive ELISA, biotinylated against non-biotinylated ASARM-peptide. The format is binding, Rabbit. The settings on record: 0.5 ng/mL biotinylated ASARM-peptide. The text has this:
MEPE ASARM-peptide (phosphorylated and non-phosphorylated) & polyclonal antibodies. The carboxy terminal region of MEPE containing residues 507-525 were synthesized using routine techniques by multiple peptide cloning systems (Multiple Peptide Systems, San Diego, Calif.). For ELISA studies, both phosphorylated and non-phosphorylated peptides were synthesized. The phosphorylated-form of the peptide (NH2—RDDSSESSDSG(Sp)S(Sp)E(Sp)DGD-COOH; SEQ ID NO. 14) was biotinylated using a Pierce EZ-Link Sulfo-NHS-LC-Biotinylation Kit (Pierce & Co, Rockford, Ill.) and the peptide de-salted using an Amersham Biosciences PD-10 Desalting column (Amersham Biosciences, Piscataway, N.J.). […] Rabbit polyclonal antibodies raised against ASARM-peptide NH2-[…]-COOH (SEQ ID NO. 5) were used in these studies and have been previously described (Rowe, et al., Bone 34:303-319, 2004). Pre-immune sera from the same rabbits were used as negative controls.
ELISA Assay. A new enzyme-linked-immunosorbent-assay (ELISA) was designed to specifically quantitate ASARM-peptide(s) in sera from humans and mice. […]

For the substance “H-CFSSRRRDDSSESSDSGSSSESDGD-OH [ASARM-peptide]”, the “KD of quenching in competitive ELISA” value is reported as 7.5 ng/mL and the “Qmax (quench maximum)” value is reported as 98.7%.
